From US6706664B1, “Benzoxazole compounds, process for the preparation thereof and herbicides” (UBE Industries, Ltd., priority 1999, dated 2004)

Legend:
Parameters in all cases: key: 0: normal development; 1: Less damaged; 2: Slightly damaged; 3: Moderately damaged; 4: Severely damaged; 5: All killed
velvetleaf [1] = assay: Soil treatment test for upland field; assay type: in vivo, Abutilon theophrasti; conditions: 500 g/ha, glass house 25° C., 3 weeks
Summary of the method: (§1)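 Damage rated on a 0–5 scale (0 normal development, 5 all killed) after 3 weeks in a glasshouse at about 25 °C. Compounds applied as a water-diluted wettable powder (0.05% surfactant) sprayed at 500 g/ha onto soil surface over freshly sown seeds in alluvial Ube soil.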

barnyardgrass [2] = assay: Herbicidal test for paddy field; assay type: in vivo, Echinochloa crusgalli; conditions: paddy field pot, 500 g/ha dropwise at 1.5 leaf stage of barnyardgrass, 3 weeks, rank vs non-treated
Summary of the method: (§2)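 Scores ran from 0 (normal development) to 5 (all killed) against untreated pots, judged after 3 weeks in a glasshouse averaging 25° C. Compound, as wettable powder diluted in water with 0.05% surfactant, was applied dropwise into 3 cm-deep paddy water at 500 g/ha. Application was at the 1.5-leaf stage of barnyardgrass.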

green foxtail [3] = assay: Foliar spread test for upland field; assay type: in vivo, Setaria viridis; conditions: foliar spray 500 ppm, 3 weeks, rank vs non-treated
Summary of the method: (§3)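 Wettable powders at 500 ppm, with 0.5% surfactant, were sprayed uniformly over plants raised for roughly 2 weeks in glasshouse pots of volcanic ash soil. Herbicidal damage rated on a 0–5 scale (5 = all killed) after a further 3 weeks at an average 25 °C.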

barnyardgrass [4] = assay: Soil treatment test for upland field; assay type: in vivo, Echinochloa crusgalli; conditions: 500 g/ha, glass house 25° C., 3 weeks
Summary of the method: as §1

green foxtail [5] = assay: Soil treatment test for upland field; assay type: in vivo, Setaria viridis; conditions: 500 g/ha, glass house 25° C., 3 weeks
Summary of the method: as §1

velvetleaf [6] = assay: Foliar spread test for upland field; assay type: in vivo, Abutilon theophrasti; conditions: foliar spray 500 ppm, 3 weeks, rank vs non-treated
Summary of the method: as §3

common lambsquartes = assay: Foliar spread test for upland field; assay type: in vivo, Chenopodium album; conditions: foliar spray 500 ppm, 3 weeks, rank vs non-treated
Summary of the method: as §3

annual bluegrass = assay: Foliar spread test for upland field; assay type: in vivo, Poa annua; conditions: foliar spray 500 ppm, 3 weeks, rank vs non-treated
Summary of the method: as §3

Large crabgrass [7] = assay: Soil treatment test for upland field; assay type: in vivo, Digitaria adscendens; conditions: 500 g/ha, glass house 25° C., 3 weeks
Summary of the method: as §1

solgum = assay: Soil treatment test for upland field; assay type: in vivo; conditions: 500 g/ha, glass house 25° C., 3 weeks
Summary of the method: as §1

soybean = assay: Soil treatment test for upland field; assay type: in vivo; conditions: 500 g/ha, glass house 25° C., 3 weeks
Summary of the method: as §1

corn = assay: Soil treatment test for upland field; assay type: in vivo; conditions: 500 g/ha, glass house 25° C., 3 weeks
Summary of the method: as §1

cotton = assay: Soil treatment test for upland field; assay type: in vivo; conditions: 500 g/ha, glass house 25° C., 3 weeks
Summary of the method: as §1

wheat = assay: Soil treatment test for upland field; assay type: in vivo; conditions: 500 g/ha, glass house 25° C., 3 weeks
Summary of the method: as §1

sugar beat = assay: Soil treatment test for upland field; assay type: in vivo; conditions: 500 g/ha, glass house 25° C., 3 weeks
Summary of the method: as §1

livid amaranth = assay: Soil treatment test for upland field; assay type: in vivo, Amaranthus lividus; conditions: 500 g/ha, glass house 25° C., 3 weeks
Summary of the method: as §1

monochoria = assay: Herbicidal test for paddy field; assay type: in vivo, Monochoria vaginalis; conditions: paddy field pot, 500 g/ha dropwise at 1.5 leaf stage of barnyardgrass, 3 weeks, rank vs non-treated
Summary of the method: as §2

morning glory = assay: Foliar spread test for upland field; assay type: in vivo, Ipomoea spps.; conditions: foliar spray 500 ppm, 3 weeks, rank vs non-treated
Summary of the method: as §3

Large crabgrass [8] = assay: Foliar spread test for upland field; assay type: in vivo, Digitaria adscendens; conditions: foliar spray 500 ppm, 3 weeks, rank vs non-treated
Summary of the method: as §3

## CCCC(Oc1cccc(C(F)(F)F)c1)c1nc2cc(C#N)c(C#N)cc2o1 (stereo not shown) [Compound 317]
Velvetleaf [1]
  Effects Velvetleaf: 5
Barnyardgrass [2]
  Effect Barnyardgrass: 3
Green foxtail [3]
  Effects Green foxtail: 5
Barnyardgrass [4]
  Effects Barnyardgrass: 3
Green foxtail [5]
  Effects Green foxtail: 5
Velvetleaf [6]
  Effects Velvetleaf: 3
Common lambsquartes
  Effects Common lambsquarters: 5
Annual bluegrass
  Effects Annual bluegrass: 5
Large crabgrass [7]
  Effects Large crabgrass: 5
solgum
  Effects Solgum: 1
soybean
  Effects Soybean: 1
corn
  Effects Corn: 2
cotton
  Effects Cotton: 0
wheat
  Effects Wheat: 1
Sugar beat
  Effects Sugar beat: 5
Livid amaranth
  Effects Livid amaranth: 5
monochoria
  Effect Monochoria: 5

## CCC(Oc1cccc(C(F)(F)F)c1)c1nc2cc(Br)ccc2o1 (stereo not shown) [Compound 166]
Barnyardgrass [2]
  Effect Barnyardgrass: 3
Green foxtail [3]
  Effects Green foxtail: 3
Morning glory
  Effects Morning glory: 4
Large crabgrass [8]
  Effects Large crabgrass: 3
Barnyardgrass [4]
  Effects Barnyardgrass: 4
Green foxtail [5]
  Effects Green foxtail: 5
Velvetleaf [6]
  Effects Velvetleaf: 2
Common lambsquartes
  Effects Common lambsquarters: 4
Large crabgrass [7]
  Effects Large crabgrass: 5
solgum
  Effects Solgum: 0
soybean
  Effects Soybean: 0
corn
  Effects Corn: 0
cotton
  Effects Cotton: 0
wheat
  Effects Wheat: 0
Sugar beat
  Effects Sugar beat: 5
Livid amaranth
  Effects Livid amaranth: 5
monochoria
  Effect Monochoria: 5

## CCC(Oc1ccc(F)c(C(F)(F)F)c1)c1nc2cc(F)ccc2o1 (stereo not shown) [Compound 119, 1-(5-fluorobenzoxazol-2-yl)-1-(4-fluoro-3-(trifluoromethyl)phenoxy)propane]
Barnyardgrass [2]
  Effect Barnyardgrass: 3
Green foxtail [3]
  Effects Green foxtail: 1
Morning glory
  Effects Morning glory: 3
Large crabgrass [8]
  Effects Large crabgrass: 1
Barnyardgrass [4]
  Effects Barnyardgrass: 5
Green foxtail [5]
  Effects Green foxtail: 5
Velvetleaf [6]
  Effects Velvetleaf: 2
Common lambsquartes
  Effects Common lambsquarters: 4
Large crabgrass [7]
  Effects Large crabgrass: 5
solgum
  Effects Solgum: 0
soybean
  Effects Soybean: 0
corn
  Effects Corn: 0
cotton
  Effects Cotton: 0
wheat
  Effects Wheat: 0
Sugar beat
  Effects Sugar beat: 5
Livid amaranth
  Effects Livid amaranth: 5
monochoria
  Effect Monochoria: 4

## CC(Oc1ccc(F)c(C(F)(F)F)c1)c1nc2cc(Cl)ccc2o1 (stereo not shown) [Compound 137]
Barnyardgrass [2]
  Effect Barnyardgrass: 3
Green foxtail [3]
  Effects Green foxtail: 3
Morning glory
  Effects Morning glory: 2
Large crabgrass [8]
  Effects Large crabgrass: 1
Barnyardgrass [4]
  Effects Barnyardgrass: 3
Green foxtail [5]
  Effects Green foxtail: 5
Velvetleaf [6]
  Effects Velvetleaf: 1
Large crabgrass [7]
  Effects Large crabgrass: 5
solgum
  Effects Solgum: 1
soybean
  Effects Soybean: 0
corn
  Effects Corn: 1
cotton
  Effects Cotton: 0
wheat
  Effects Wheat: 1
Sugar beat
  Effects Sugar beat: 2
Livid amaranth
  Effects Livid amaranth: 5
monochoria
  Effect Monochoria: 3

## CCC(Oc1cccc(C#N)c1)c1nc2cc(F)c(Cl)cc2o1 (stereo not shown) [Compound 498]
Velvetleaf [1]
  Effects Velvetleaf: 3
Barnyardgrass [2]
  Effect Barnyardgrass: 3
Green foxtail [3]
  Effects Green foxtail: 4
Large crabgrass [8]
  Effects Large crabgrass: 3
Barnyardgrass [4]
  Effects Barnyardgrass: 3
Green foxtail [5]
  Effects Green foxtail: 5
Velvetleaf [6]
  Effects Velvetleaf: 2
Annual bluegrass
  Effects Annual bluegrass: 2
Large crabgrass [7]
  Effects Large crabgrass: 5
solgum
  Effects Solgum: 1
soybean
  Effects Soybean: 1
corn
  Effects Corn: 0
cotton
  Effects Cotton: 1
wheat
  Effects Wheat: 1
Sugar beat
  Effects Sugar beat: 5
Livid amaranth
  Effects Livid amaranth: 5
monochoria
  Effect Monochoria: 2

## CCCC(Oc1cccc(C(F)(F)F)c1)c1nc2cc(F)c(Cl)cc2o1 (stereo not shown) [Compound 497]
Velvetleaf [1]
  Effects Velvetleaf: 3
Barnyardgrass [2]
  Effect Barnyardgrass: 4
Green foxtail [3]
  Effects Green foxtail: 4
Large crabgrass [8]
  Effects Large crabgrass: 2
Green foxtail [5]
  Effects Green foxtail: 5
Velvetleaf [6]
  Effects Velvetleaf: 3
Common lambsquartes
  Effects Common lambsquarters: 2
Annual bluegrass
  Effects Annual bluegrass: 2
Large crabgrass [7]
  Effects Large crabgrass: 5
solgum
  Effects Solgum: 1
soybean
  Effects Soybean: 1
corn
  Effects Corn: 1
cotton
  Effects Cotton: 1
wheat
  Effects Wheat: 1
Sugar beat
  Effects Sugar beat: 5
Livid amaranth
  Effects Livid amaranth: 5
monochoria
  Effect Monochoria: 4

## CCCC(Oc1ccc(F)c(C(F)(F)F)c1)c1nc2cc(F)c(Cl)cc2o1 (stereo not shown) [Compound 494]
Velvetleaf [1]
  Effects Velvetleaf: 3
Barnyardgrass [2]
  Effect Barnyardgrass: 5
Green foxtail [3]
  Effects Green foxtail: 3
Morning glory
  Effects Morning glory: 2
Barnyardgrass [4]
  Effects Barnyardgrass: 4
Green foxtail [5]
  Effects Green foxtail: 5
Velvetleaf [6]
  Effects Velvetleaf: 2
Common lambsquartes
  Effects Common lambsquarters: 4
Large crabgrass [7]
  Effects Large crabgrass: 5
solgum
  Effects Solgum: 1
soybean
  Effects Soybean: 0
corn
  Effects Corn: 1
cotton
  Effects Cotton: 0
wheat
  Effects Wheat: 1
Sugar beat
  Effects Sugar beat: 5
Livid amaranth
  Effects Livid amaranth: 5
monochoria
  Effect Monochoria: 5
